Test system: 186277-243-T-J2-PDC multi-cell spheroid viability
Assay: Anticancer human tumor 186277-243-T-J2-PDC patient-derived colon adenocarcinoma cell line growth inhibition [PI3K]
Conditions: for viability, T/C: stronger effect = lower value
Summary of the method: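 Complex 3D spheroids (cancer cells + endothelial HUVEC + mesenchymal stem cells); drug pairs of targeted agent x inavolisib/alpelisib/duvelisib/copanlisib; half-log series from ~Cmax, max 10 microM if Cmax unknown; endpoint viability.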

[1] = curve of first compound, second compound 0.00316 µM
[2] = curve of first compound, second compound 0.01 µM
[3] = curve of first compound, second compound 0.0316 µM
[4] = curve of first compound, second compound 0.1 µM
[5] = curve of first compound, second compound 0.316 µM
[6] = curve of first compound, second compound 1 µM
[7] = second compound 0.00316 µM, first compound 0.0316 µM
[8] = second compound 0.00316 µM, first compound 0.1 µM
[9] = second compound 0.00316 µM, first compound 0.316 µM
[10] = second compound 0.00316 µM, first compound 1 µM
[11] = second compound 0.00316 µM, first compound 3.16 µM
[12] = second compound 0.00316 µM, first compound 10 µM
[13] = second compound 0.01 µM, first compound 0.0316 µM
[14] = second compound 0.01 µM, first compound 0.1 µM
[15] = second compound 0.01 µM, first compound 0.316 µM
[16] = second compound 0.01 µM, first compound 1 µM
[17] = second compound 0.01 µM, first compound 3.16 µM
[18] = second compound 0.01 µM, first compound 10 µM
[19] = second compound 0.0316 µM, first compound 0.0316 µM
[20] = second compound 0.0316 µM, first compound 0.1 µM
[21] = second compound 0.0316 µM, first compound 0.316 µM
[22] = second compound 0.0316 µM, first compound 1 µM
[23] = second compound 0.0316 µM, first compound 3.16 µM
[24] = second compound 0.0316 µM, first compound 10 µM
[25] = second compound 0.1 µM, first compound 0.0316 µM
[26] = second compound 0.1 µM, first compound 0.1 µM
[27] = second compound 0.1 µM, first compound 0.316 µM
[28] = second compound 0.1 µM, first compound 1 µM
[29] = second compound 0.1 µM, first compound 3.16 µM
[30] = second compound 0.1 µM, first compound 10 µM
[31] = second compound 0.316 µM, first compound 0.0316 µM
[32] = second compound 0.316 µM, first compound 0.1 µM
[33] = second compound 0.316 µM, first compound 0.316 µM
[34] = second compound 0.316 µM, first compound 1 µM
[35] = second compound 0.316 µM, first compound 3.16 µM
[36] = second compound 0.316 µM, first compound 10 µM
[37] = second compound 1 µM, first compound 0.0316 µM
[38] = second compound 1 µM, first compound 0.1 µM
[39] = second compound 1 µM, first compound 0.316 µM
[40] = second compound 1 µM, first compound 1 µM
[41] = second compound 1 µM, first compound 3.16 µM
[42] = second compound 1 µM, first compound 10 µM
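Further: spheroids exposed to compounds for seven days before viability reading.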
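Wherever viability, T/C is given: 100% = DMSO vehicle control viability.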

CCCS(=O)(=O)Nc1ccc(F)c(C(=O)c2c[nH]c3ncc(-c4ccc(Cl)cc4)cc23)c1F + CC(Nc1ccc2c(c1)OCCn1cc(N3C(=O)OCC3C(F)F)nc1-2)C(N)=O
IC50 [1]: 4740 nM | IC50 [2]: 5430 nM | IC50 [3]: 5340 nM | IC50 [4]: 5030 nM | IC50 [5]: 4570 nM | IC50 [6]: 4110 nM | viability, T/C [7]: 108% | viability, T/C [8]: 91.5% | viability, T/C [9]: 92.4% | viability, T/C [10]: 83.9% | viability, T/C [11]: 77.4% | viability, T/C [12]: 6.03% | viability, T/C [13]: 118% | viability, T/C [14]: 90.4% | viability, T/C [15]: 83.8% | viability, T/C [16]: 90.5% | viability, T/C [17]: 89.9% | viability, T/C [18]: 5.05% | viability, T/C [19]: 112% | viability, T/C [20]: 103% | viability, T/C [21]: 102% | viability, T/C [22]: 95.6% | viability, T/C [23]: 88.7% | viability, T/C [24]: 6.11% | viability, T/C [25]: 101% | viability, T/C [26]: 105% | viability, T/C [27]: 118% | viability, T/C [28]: 113% | viability, T/C [29]: 81.2% | viability, T/C [30]: 4% | viability, T/C [31]: 81% | viability, T/C [32]: 80.3% | viability, T/C [33]: 87.1% | viability, T/C [34]: 105% | viability, T/C [35]: 71.5% | viability, T/C [36]: 4.62% | viability, T/C [37]: 59% | viability, T/C [38]: 60.9% | viability, T/C [39]: 70.4% | viability, T/C [40]: 65.1% | viability, T/C [41]: 63.2% | viability, T/C [42]: 5.04%

C=CC(=O)N1CCN(c2nc(=O)n(-c3c(C)ccnc3C(C)C)c3nc(-c4c(O)cccc4F)c(F)cc23)C(C)C1 (centres undefined) + COc1c(OCCCN2CCOCC2)ccc2c3n(c(=NC(=O)c4cnc(N)nc4)nc12)CCN3
IC50 [1]: > 10000 nM | IC50 [2]: > 10000 nM | IC50 [3]: 1870 nM | IC50 [4]: < 31.6 nM | IC50 [5]: < 31.6 nM | IC50 [6]: < 31.6 nM | viability, T/C [7]: 102% | viability, T/C [8]: 88.7% | viability, T/C [9]: 88.1% | viability, T/C [10]: 88.1% | viability, T/C [11]: 93.2% | viability, T/C [12]: 73% | viability, T/C [13]: 93.1% | viability, T/C [14]: 88.2% | viability, T/C [15]: 94.4% | viability, T/C [16]: 93.6% | viability, T/C [17]: 87.8% | viability, T/C [18]: 62.3% | viability, T/C [19]: 59.7% | viability, T/C [20]: 67.1% | viability, T/C [21]: 57.5% | viability, T/C [22]: 52.6% | viability, T/C [23]: 47.8% | viability, T/C [24]: 31.2% | viability, T/C [25]: 18.3% | viability, T/C [26]: 18.1% | viability, T/C [27]: 14.9% | viability, T/C [28]: 12.3% | viability, T/C [29]: 11.1% | viability, T/C [30]: 10.9% | viability, T/C [31]: 6.24% | viability, T/C [32]: 4.28% | viability, T/C [33]: 3.7% | viability, T/C [34]: 4.23% | viability, T/C [35]: 7.04% | viability, T/C [36]: 4.1% | viability, T/C [37]: 1.93% | viability, T/C [38]: 4.05% | viability, T/C [39]: 1.66% | viability, T/C [40]: 2.03% | viability, T/C [41]: 2.92% | viability, T/C [42]: 2.49%

Cn1ncc(Cl)c1-c1cc(C(=O)NC(CN)Cc2cccc(F)c2)sc1Cl (centres undefined) + COc1c(OCCCN2CCOCC2)ccc2c3n(c(=NC(=O)c4cnc(N)nc4)nc12)CCN3
IC50 [1]: 224 nM | IC50 [2]: 225 nM | IC50 [3]: 46.8 nM | IC50 [4]: < 31.6 nM | IC50 [5]: < 31.6 nM | IC50 [6]: < 31.6 nM | viability, T/C [7]: 93% | viability, T/C [8]: 63.4% | viability, T/C [9]: 42.9% | viability, T/C [10]: 30.4% | viability, T/C [11]: 20.4% | viability, T/C [12]: 9.36% | viability, T/C [13]: 86.4% | viability, T/C [14]: 71.8% | viability, T/C [15]: 38.2% | viability, T/C [16]: 23.1% | viability, T/C [17]: 14.4% | viability, T/C [18]: 4.57% | viability, T/C [19]: 58.3% | viability, T/C [20]: 33.6% | viability, T/C [21]: 23.5% | viability, T/C [22]: 13.7% | viability, T/C [23]: 10.4% | viability, T/C [24]: 2.08% | viability, T/C [25]: 21.1% | viability, T/C [26]: 13.3% | viability, T/C [27]: 8.18% | viability, T/C [28]: 6.79% | viability, T/C [29]: 6.13% | viability, T/C [30]: 1.39% | viability, T/C [31]: 4.19% | viability, T/C [32]: 4.53% | viability, T/C [33]: 2.93% | viability, T/C [34]: 5.08% | viability, T/C [35]: 3.95% | viability, T/C [36]: 0.44% | viability, T/C [37]: 2.43% | viability, T/C [38]: 1.6% | viability, T/C [39]: 2.02% | viability, T/C [40]: 1.95% | viability, T/C [41]: 1.4% | viability, T/C [42]: 0.21%

Cc1nc(NC(=O)N2CCCC2C(N)=O)sc1-c1ccnc(C(C)(C)C(F)(F)F)c1 (centres undefined)
viability, T/C (compound 0.1 µM): 104% [middle of 8 runs] | viability, T/C (compound 0.316 µM): 110% [middle of 8 runs] | viability, T/C (compound 1 µM): 102% [middle of 8 runs] | viability, T/C (compound 3.16 µM): 54.1% [middle of 8 runs] | viability, T/C (compound 10 µM): 16.6% [middle of 8 runs] | IC50 (compound alone, run of 05/08/2023): 3.62 µM [middle of 8 runs]

C#Cc1c(F)ccc2cc(O)cc(-c3ncc4c(N5CC6CCC(C5)N6)nc(OCC56CCCN5CC(F)C6)nc4c3F)c12 (centres undefined)
viability, T/C (compound 0.0316 µM): 90.4% [middle of 4 runs] | viability, T/C (compound 0.1 µM): 40.8% [middle of 4 runs] | viability, T/C (compound 0.316 µM): 25.4% [middle of 4 runs] | viability, T/C (compound 1 µM): 15.6% [middle of 4 runs] | viability, T/C (compound 3.16 µM): 14.8% [middle of 4 runs] | viability, T/C (compound 10 µM): 11.7% [middle of 4 runs] | IC50 (curve of compound): 80.8 nM [middle of 4 runs]

Source: PubChem BioAssay AID1963983 (Molecular Pharmacology Branch, DTP, NCI, 2024)
